According to patent US12433670B2, “Systems and methods for treating cancer and/or augmenting organ function” (Autonomix Medical, Inc., priority 2013, dated 2025):

How the values were obtained:
[1] = tested on: Mia PaCa2 human pancreatic cancer cells
Procedure: The following non-limiting example is directed at the treatment of neurogenic pathways for tumor growth and metastasis of pancreatic ductal adenocarcinoma (PDAC). A control experiment was performed with 10 athymic nude mice. The 10 mice were surgically prepared under anesthesia, and the surgical site was cleaned with 75% ethanol solution. A dorsal incision was used to access the spleen, pancreas and associated arterial supply. Mia PaCa2 human pancreatic cancer cells were seeded into the pancreas of each mouse. In 5 of the mice, the celiac ganglion and surrounding nerves were ablated with ethanol. The surgical procedures were completed and the mice were returned to Plexiglass boxes for observation.
The animals were monitored for detectable sickness related behavior and tumor growth was monitored via in vivo bioluminescent imaging techniques (IVIS® imaging system). Animals were monitored for relative changes in the following criteria: detectable sickness-related behavior, hunching and postural changes, signs of tumor growth in the animals' back (visible lumps), increases in piloerection, changes in skin tone and character, and changes in voluntary movement levels and exploratory behavior.

[2] = 7 weeks; EtOH group vs control group
Procedure: (§1) The following, non-limiting example, is directed to treatment of cancer (e.g., pancreatic cancer), internal pain or neural mediated hyperplasia in organs (e.g., benign prostatic hyperplasia). Pancreatic carcinoma cells (Mia PaCa2) were injected into the head of the pancreas of 10 athymic nude mice (subjects). A bolus of ethanol (50-75 uL) was administered to the celiac ganglion and surrounding nerves of five of the mice (i.e., the EtOH ablation group). The remaining five subjects constitute the untreated control group.
The experiment was terminated at 7 weeks.
(§2) The metastases per group were assessed during necropsy.

[3] = tested on: Pancreatic carcinoma cells (Mia PaCa2)
Procedure: as §1
The mice were tracked for 7 weeks post procedure. Tumor growth rates in all subjects were monitored via bioluminescent imaging with an in vivo imaging system, i.e., IVIS Spectrum (Xenogen), twice weekly during the experiment.
as §2

[4] = necropsy at 7 weeks, affected/total mice

With CCO [EtOH, ethanol] the “skin tone and movement versus the control mice” value ([1]; 2 weeks post-surgery, celiac ganglion and surrounding nerves ablated with ethanol, n=5) was “improved skin tone and movement”, the “average tumor size relative to the average tumor size in the control group (IVIS luciferase ROI imaging)” value ([1]; 3 weeks, experimental group vs control group) was 55% and the “overall size difference between subjects in the groups (FIG. 11c)” value [2] was “no overall size difference”. For the same molecule, the “median tumor size relative to the control group median tumor size” value ([3]; 3 weeks) was “less than 1%”, the “tumor growth rate compared with the control arm (FIG. 11a)” value ([3]; 3 weeks post procedure, median subject of each group, ethanol 50-75 uL) was “substantially decreased” and the “difference in bioluminescence between the median responders” value ([3]; 3 weeks post procedure, treatment arm vs control arm) was about 100 ×. The “mean tumor size relative to the control group” value ([3]; 3 weeks, 1-sided, alpha=0.05, n=5, p=0.11) was “half”, the “Occurrence of metastases by group: Liver” value [3, 4] was 0/5 and the “Occurrence of metastases by group: Local invasion” value [3, 4] was 2/5. For the same molecule, the “Occurrence of metastases by group: Stomach” value [3, 4] was 0/5, the “Occurrence of metastases by group: Spleen” value ([3]; necropsy at 7 weeks, affected/total mice, nerves from pancreas to spleen not treated) was 4/5 and the “incidence of metastases versus the untreated control group” value ([3]; necropsy at 7 weeks, including non-responder sub-group) was “considerably lower”. For the same molecule, the “tumor mass versus subjects of the control group” value ([3]; subjects with ablated peri-pancreatic nerves, overall) was “less tumor mass”.
